# Data reported in ChEMBL document CHEMBL1130755, “Synthesis of a new class of camptothecin derivatives, the long-chain fatty acid esters of 10-hydroxycamptothecin, as a potent prodrug candidate, and their in vitro metabolic conversion by carboxylesterases” (Bioorg Med Chem Lett, 1998).
# How the values were obtained:
# [1] = target: T1, Carboxylesterase 1E (Rattus norvegicus, UniProt Q63108); assay: Specific activity (hydrolysis) by purified carboxylesterase isozyme RH1 against microsomes in rat liver
# T1 sequence (Q63108 whole entry): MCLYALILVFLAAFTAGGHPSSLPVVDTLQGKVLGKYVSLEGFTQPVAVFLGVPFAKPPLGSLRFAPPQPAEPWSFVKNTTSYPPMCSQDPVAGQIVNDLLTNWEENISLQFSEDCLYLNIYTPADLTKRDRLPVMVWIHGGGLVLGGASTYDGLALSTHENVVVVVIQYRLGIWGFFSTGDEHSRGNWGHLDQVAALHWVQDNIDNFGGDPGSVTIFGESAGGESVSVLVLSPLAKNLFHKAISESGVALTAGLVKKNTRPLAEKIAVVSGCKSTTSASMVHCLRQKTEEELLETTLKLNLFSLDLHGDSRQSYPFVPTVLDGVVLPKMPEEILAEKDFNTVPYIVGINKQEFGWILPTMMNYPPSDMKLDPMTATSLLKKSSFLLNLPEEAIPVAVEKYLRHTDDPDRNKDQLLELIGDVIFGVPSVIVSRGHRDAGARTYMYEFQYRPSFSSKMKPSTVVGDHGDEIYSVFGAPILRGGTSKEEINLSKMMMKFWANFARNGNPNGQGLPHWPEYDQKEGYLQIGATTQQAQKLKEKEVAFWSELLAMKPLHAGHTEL
# [2] = target: T2, Liver carboxylesterase 1 (Homo sapiens, UniProt P23141); assay: Specific activity (hydrolysis) by purified carboxylesterase isozyme HU1 against microsomes in human liver
# T2 sequence (P23141 whole entry): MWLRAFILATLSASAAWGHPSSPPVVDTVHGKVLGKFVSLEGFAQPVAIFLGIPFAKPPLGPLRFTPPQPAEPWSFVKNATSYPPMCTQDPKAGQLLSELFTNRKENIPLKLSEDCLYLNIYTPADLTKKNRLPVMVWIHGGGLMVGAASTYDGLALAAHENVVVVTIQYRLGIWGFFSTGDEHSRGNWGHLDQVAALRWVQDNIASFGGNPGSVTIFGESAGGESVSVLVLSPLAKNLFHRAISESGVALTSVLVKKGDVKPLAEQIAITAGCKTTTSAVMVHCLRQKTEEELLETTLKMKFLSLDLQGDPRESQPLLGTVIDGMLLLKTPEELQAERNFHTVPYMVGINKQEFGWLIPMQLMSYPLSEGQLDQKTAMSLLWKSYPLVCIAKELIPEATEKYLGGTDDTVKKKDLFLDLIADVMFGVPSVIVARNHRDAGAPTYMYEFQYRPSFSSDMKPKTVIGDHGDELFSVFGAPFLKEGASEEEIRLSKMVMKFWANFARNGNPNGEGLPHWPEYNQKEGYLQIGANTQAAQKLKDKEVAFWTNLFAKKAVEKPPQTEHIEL
# [3] = test system: Liver carboxylesterase 1 (Sus scrofa); assay: Specific activity (hydrolysis) by purified carboxylesterase isozyme P1 against microsomes in pig liver
SMILES,Activity [1] [nmol/min/mg],Activity [2] [nmol/min/mg],Activity [3] [nM/mg/min]
CCc1c2c(nc3ccc(OC(=O)N4CCC(N5CCCCC5)CC4)cc13)-c1cc3c(c(=O)n1C2)COC(=O)[C@]3(O)CC [IRINOTECAN],0.259,–,–
CCCCCCCCCCCCCCCCCC(=O)Oc1ccc2nc3c(cc2c1)Cn1c-3cc2c(c1=O)COC(=O)[C@]2(O)CC,0.698,1.27,3.02
CCCCCCCCCCCC(=O)Oc1ccc2nc3c(cc2c1)Cn1c-3cc2c(c1=O)COC(=O)[C@]2(O)CC,19.1,15.3,42.1
CCCCCCCCCC(=O)Oc1ccc2nc3c(cc2c1)Cn1c-3cc2c(c1=O)COC(=O)[C@]2(O)CC,17.4,27.9,37.4
CCCCCCCCCCCCCCCCCCCC(=O)Oc1ccc2nc3c(cc2c1)Cn1c-3cc2c(c1=O)COC(=O)[C@]2(O)CC,0.183,1.07,0.854
CCCCCCCCCCCCCCCC(=O)Oc1ccc2nc3c(cc2c1)Cn1c-3cc2c(c1=O)COC(=O)[C@]2(O)CC,2.33,1.58,9.13
